# According to patent US20260130879A1 (IMMUNIC AG, priority 2023, published 2026):
# Entries after “also recorded” stand apart in the source; their conditions may differ. Where a name gives a salt, the structure may show the parent alone.
# Assays:
# [1] = system: neurofilament light polypeptide (NFL); assay: Serum neurofilament (NFL) in Phase 2 study in relapsing-remitting multiple sclerosis, patients with no relapses; assay type: in vivo, human; conditions: after 24 weeks, RRMS patients with no relapses
# Protocol: […]. The study was carried out in accordance with current ICH E6 (Good Clinical Practice) guidelines and the EMA Reflection paper for laboratories that perform the analysis or evaluation of clinical trial samples (EMA/INS/GCP/532137/2010, 28 Feb. 2012). The sample analysis was performed on a Meso QuickPlex SQ 120 analyzer by an ECLIA technique using a validated method.
# In order to confirm an effect of IMU-838 on the plasma levels of NFL the subgroup of patients with no relapses was investigated
# Nurr1 target genes = assay: Microarray gene expression in stimulated human PBMCs; assay type: cell-based; conditions: anti-CD3/anti-CD28 stimulated human PBMCs, 20 h
# Protocol: Human PBMC isolation was performed similarly as described above. […] Four biological replicates were used per condition. Cells were detached from the cell culture plates by using MACS buffer, were washed with PBS and then resuspended in RLT buffer for subsequent RNA isolation with RNAeasy Mini Kit (Quiagen). 100 ng total RNA per sample were introduced into an RT-IVT reaction. Prior to RT-IVT, the total RNA samples were spiked with in-vitro synthesized polyadenylated transcripts (One-Color RNA Spike-In Mix, Agilent Technologies), which serves as an internal labeling control for linearity, sensitivity and accuracy. The spiked total RNA was reverse transcribed into cDNA and then converted into labeled cRNA by in vitro transcription (Low Input Quick-Amp Labeling Kit One-Color, Agilent Technologies) incorporating Cyanine-3-CTP. All steps were carried out according to the manufacturer's instructions. […] Afterwards, microarrays were washed with increasing stringency using Gene Expression Wash Buffers (Agilent Technologies) followed by drying with acetonitrile (SIGMA). […] Differential gene expression was identified by applying appropriate biostatistics to the data set. GeneSpring GX11 analysis software was used to normalize and analyze the raw data. […] The induced and repressed genes were further characterized for involvement in functional categories (biological processes, molecular functions, cellular components, protein classes and pathways) based on the PANTHER database.
# BDNF = assay: Induction of BDNF in LPS-stimulated human PBMCs (ELISA); assay type: cell-based; conditions: 3 μM, supernatant 14 h
# [2] = system: tyrosine hydroxylase (TH); assay: Nurr1 regulated gene expression of TH in T98G cells (qPCR); assay type: cell-based; conditions: 16 h
# Protocol: (§1) . After 16 h of incubation the medium was removed, cells were washed with phosphate buffered saline (PBS) and after full aspiration of residual liquids immediately frozen at −80° C., until further procession. Total RNA was isolated using E.Z.N.A.® Total RNA Kit I (Omega Bio-tek. Norcross. USA) following the manufacturer's instructions. RNA concentration and purity was assessed using a NanoDrop™ One UV/VIS spectrophotometer (Thermo Fisher Scientific. Waltham. USA) at 260/280 nm. Right before reverse transcription (RT), RNA was linearized at a concentration of 133 ng/μL at 65° C., for 10 min and then immediately incubated on ice for at least 1 min. Reverse transcription was performed using 2 μg total RNA, 20 U Recombinant RNasin® Ribonuclease Inhibitor (Promega, Mannheim, Germany), 100 U SuperScript IV Reverse Transcriptase including 5× First Strand Buffer and 0.1 M dithiothreitol (Thermo Fisher Scientific, Waltham, USA), 3.75 ng linear acrylamide. […] Quantitative polymerase chain reaction (qPCR) was conducted using an Applied Biosystems™ QuantStudio 1 (Waltham, USA) and a SYBR green based detection method. […] PCR product specificity was evaluated using a melting curve analysis ranging from 65 to 95° C. […]
# [3] = system: vesicular amino acid transporter 2 (VMAT2); assay: Nurr1 regulated gene expression of VMAT2 in T98G cells (qPCR); assay type: cell-based; conditions: 16 h
# Protocol: as §1
# RRMS patients = conditions: 12 weeks or 24 weeks; cited from earlier work
# brain lesions = conditions: animal model of RRMS; cited from earlier work
# SH-SY5Y = assay: Apoptosis assay in SH-SY5Y cells (TNFα and CHX); assay type: cell-based, human; conditions: pretreated 1 h, TNFα 50 ng/ml and CHX 20 μg/mL for 6 hours
# Protocol: (§2) Cell viability was assessed by flow cytometry after staining the cells with Annexin V and a live/dead dye. Alive cells are defined as […].
# N2A = assay: Apoptosis assay in N2A cells (TNFα and CHX); assay type: cell-based, murine; conditions: pretreated 1 h, TNFα 50 ng/ml and CHX 20 μg/mL for 6 hours
# Protocol: as §2
# NFL = conditions: EXPAND, 12-month; cited from earlier work
smiles,measurement,setting,value
"COc1cccc(-c2ccc(NC(=O)C3=C(C(=O)O)CCC3)c(F)c2)c1 [IMU-838, vidofludimus calcium]",mean change of NFL (reduction),[1],18%
same,Upregulation A2M,Nurr1 target genes,1.6
same,Upregulation BHLHE41,Nurr1 target genes,1.5
same,Upregulation CFB,Nurr1 target genes,2.4
same,Upregulation HSD11B1,Nurr1 target genes,2.5
same,Upregulation LTA,Nurr1 target genes,2.0
same,Upregulation MARCO,Nurr1 target genes,2.6
same,Upregulation NCAM,Nurr1 target genes,1.6
same,BDNF production,BDNF,BDNF is produced
"COc1cccc(-c2ccc(NC(=O)C3=C(C(=O)O)CCC3)c(F)c2)c1 [Example 1, vidofludimus]",gene expression on tyrosine hydroxylase (TH),[2],dose-dependent gene expression
same,gene expression on vesicular amino acid transporter 2 (VMAT2),[3],dose-dependent gene expression
"COc1cccc(-c2ccc(NC(=O)C3=C(C(=O)O)CCC3)c(F)c2)c1 [vidofludimus calcium, vidofludimus calcium salt dihydrate]",rate of confirmed disability worsening over time vs placebo,RRMS patients,lower rate of confirmed disability worsening
same,unique active brain lesions vs placebo,RRMS patients,significantly fewer unique active brain lesions
same,reduction in brain lesions vs control treatment,brain lesions,greater reduction in brain lesions
"C#CCOc1cccc(-c2ccc(NC(=O)C3=C(C(=O)O)CCC3)c(F)c2)c1 [Example 3, 2-((3-Fluoro-3′-(prop-2-yn-1-yloxy)-[1,1′-biphenyl]-4-yl)carbamoyl)cyclopent-1-ene-1-carboxylic acid]","induction of apoptosis, SH-SY5Y",SH-SY5Y,induction of apoptosis was reduced
same,"induction of apoptosis, N2A",N2A,induction of apoptosis was reduced
same,gene expression on tyrosine hydroxylase (TH),[2],dose-dependent gene expression
same,gene expression on vesicular amino acid transporter 2 (VMAT2),[3],dose-dependent activation; also recorded: dose-dependent gene expression
CCc1cc(/C(C)=N/OCc2ccc(C3CCCCC3)c(C(F)(F)F)c2)ccc1CN1CC(C(=O)O)C1 [siponimod],"effect on neurofilament, non-active SPMS",NFL,little or no effect on neurofilament
